The results in this text go back to the Deep4Chem optical property database.

The data set is described as follows: solvent given as SMILES.

As to `Fc1ccc(-c2nc3n(c2-c2ccncc2)CCS3)cc1`, the absorption maximum runs as follows: (in C1CCCCC1) 328 nm; (in C1CCOC1) 328.5 nm; (in C1COCCO1) 328.5 nm; (in CC#N) 319 nm; (in CC(C)(C)O) 329.5 nm; (in CC(C)O) 328 nm. Further, the absorption maximum reads like this: (in CCO) 325 nm; (in CCOC(C)=O) 319 nm; (in CN(C)C=O) 326.5 nm; (in CNC=O) 325.5 nm; (in CO) 322.5 nm; (in CS(C)=O) 329 nm. In addition, the absorption maximum is 332 nm (in Cc1ccc(C)cc1); 333.5 nm (in Cc1ccccc1); 329 nm (in ClC(Cl)Cl); 326 nm (in ClCCl); 322 nm (in O); 330 nm (in OCCO).
For `O=c1c2cc(F)c(O)cc2n(Cc2ccccc2)c2cc(O)c(F)cc12`, the absorption maximum (in CCO) is listed as 381 nm.
In the case of `CCCOc1ccc(/C=C/C=C/C=C/c2ccc([N+](=O)[O-])cc2)cc1`, the absorption maximum reads like this: (in CC1CCCCC1) 414 nm; (in CC#N) 413 nm; (in Cc1ccccc1) 420 nm; (in ClCCl) 421 nm.
For the compound `Clc1ccc(N2c3sc4ccccc4c3Sc3c2sc2ccccc32)cc1`, for the setting “in ClCCl”, the absorption maximum was 418 nm.
In the case of `CC(C)(C)c1ccc(C(C)(C)C)c(N2C(=O)c3cccc4c(-c5ccc(-c6ccccc6)s5)ccc(c34)C2=O)c1`, the absorption maximum was 403 nm (in CO), 405 nm (in CS(C)=O) and 398 nm (in Cc1ccccc1).
For the setting “in ClCCl”, `CC1(C)c2ccccc2N(c2ccc(-c3nc(-c4ccccn4)n(-c4ccccc4)n3)cc2)c2ccccc21` showed an absorption maximum of 342 nm.
Take `COc1ccc(N(c2ccc(OC)cc2)c2ccc3c4cccc5c(N(c6ccc(OC)cc6)c6ccc(OC)cc6)ccc(c6cccc2c63)c54)cc1`: the absorption maximum runs as follows: (in C1CCCCC1) 519 nm; (in C1CCOC1) 515 nm; (in CC#N) 508 nm; (in Cc1ccccc1) 519 nm; (in ClCCl) 514 nm.
For `CN(C)c1ccc2c(c1)[Si](C)(C)C1=CC(=[N+](C)C)C=CC1=C2`, the absorption maximum runs as follows: (in CO) 636 nm; (in O) 634 nm.
With `CCCCn1c2ccc3ccc4ccccc4c3c2c2c3c(ccc4ccccc43)ccc21`, where the note is “in ClCCl”, the absorption maximum is 337 nm.
For `Cc1cccc(C2=CC3=C(c4c(C)cc(C)cc4C)c4cc(-c5cccc(C)c5)c(-c5cccc(C)c5)n4[B-](F)(F)[N+]3=C2c2cccc(C)c2)c1`, the absorption maximum runs as follows: (in C1CCCCC1) 579 nm; (in C1CCOC1) 577 nm; (in CC#N) 559 nm; (in Cc1ccccc1) 571 nm; (in ClCCl) 573 nm.
For `CC(C)(C)c1ccc2c(c1)c1cc(C(C)(C)C)ccc1n2-c1ccc2c(c1)C(=O)c1ccc(-n3c4ccc(C(C)(C)C)cc4c4cc(C(C)(C)C)ccc43)cc1C2=O`, the absorption maximum (in Cc1ccccc1) was found to be 463 nm.
Consider `Cc1ccc(N/C=C/C=[NH+]c2ccc(C)cc2)cc1`, for which, where the note is “in CS(C)=O”, the absorption maximum came to 376 nm.
For the setting “in Cc1ccccc1”, `N#Cc1cccc(N2c3ccccc3C(c3ccccc3)(c3ccccc3)c3ccccc32)c1` gave an absorption maximum of 284 nm.
For `c1cc2c3c(cccc3c1)C(N1CCOCCOCCOCCOCC1)=N2`, the absorption maximum (in CC#N) worked out at 427 nm.
For `N#Cc1c(-n2c3ccc(Br)cc3c3cc(Br)ccc32)c(-n2c3ccc(Br)cc3c3cc(Br)ccc32)c(C#N)c(-n2c3ccc(Br)cc3c3cc(Br)ccc32)c1-n1c2ccc(Br)cc2c2cc(Br)ccc21`, the absorption maximum (in Cc1ccccc1) turned out to be 339 nm.
In turn, `CC(C)c1cccc(C(C)C)c1N1C(c2ccccc2)=Cc2ccc3ccccc3[n+]2[B-]1(F)F` had an absorption maximum (in ClCCl) of 447 nm.
`CC(C)[Si](C#Cc1c2nsnc2c(C#C[Si](C(C)C)(C(C)C)C(C)C)c2nc3c(ccc4cc5ccccc5cc43)nc12)(C(C)C)C(C)C` showed an absorption maximum (in CCCCCC) of 579 nm.
For `O=C1CCCC2=C1C(c1ccccc1)c1c(c3ccccc3oc1=O)N2` (stereo unspecified), under “in CS(C)=O”, the absorption maximum was 368 nm.
On to `Cn1c(=O)c(/N=N/c2ccc(/N=N/c3ccc(S(=O)(=O)O)cc3)cc2)c(O)c2ccccc21`, for which the absorption maximum is, setting by setting: (in C1CCOC1) 454 nm; (in CC(C)=O) 453 nm; (in CCOC(C)=O) 452 nm; (in CO) 452 nm; (in CS(C)=O) 460 nm; (in Cc1ccccc1) 458 nm. The compound further yielded an absorption maximum (in ClCCl) of 457 nm and an absorption maximum (in O) of 447 nm.
Compound `COc1ccc(-c2cc3c(ccc4sccc43)s2)cc1` returned an absorption maximum (in ClCCl) of 333 nm.
Same read-out and setting: for `CC(C)(C)c1ccc2c(c1)c1cc(C(C)(C)C)ccc1n2-c1ccc(N(c2ccc(-c3ccc(N(c4ccc(-n5c6ccc(C(C)(C)C)cc6c6cc(C(C)(C)C)ccc65)cc4)c4ccc(-n5c6ccc(C(C)(C)C)cc6c6cc(C(C)(C)C)ccc65)cc4)cc3)cc2)c2ccc(-n3c4ccc(C(C)(C)C)cc4c4cc(C(C)(C)C)ccc43)cc2)cc1` the value was 349 nm.
`COc1cc(OC)cc(C2=C3C(C)=C(I)C(/C=C/c4ccsc4)=[N+]3[B-](F)(F)n3c(/C=C/c4ccsc4)c(I)c(C)c32)c1`: the absorption maximum runs as follows: (in C1CCOC1) 670 nm; (in CS(C)=O) 675 nm; (in ClCCl) 670 nm.
For `FC(F)(F)c1ccc(C2=CC3=c4cc(-c5ccc(C(F)(F)F)cc5)c5nc(C(F)(F)C(F)(F)C(F)(F)F)nc6c(-c7ccc(C(F)(F)F)cc7)cc(c4c65)C4=CC(c5ccc(C(F)(F)F)cc5)=C5N=C(C(F)(F)C(F)(F)C(F)(F)F)N=C2C5C43)cc1` (stereo unspecified), under “in C1CCOC1”, the absorption maximum is on record as 489 nm.
`Clc1nnc(Oc2ccc(N(c3ccccc3)c3ccccc3)cc2)nn1` came in with an absorption maximum (in ClCCl) of 525 nm.
In turn, `CCCSC1=[N+]2C(=C(c3ccccc3)c3ccc(SCCC)n3[B-]2(F)F)C=C1` had an absorption maximum (in CC#N) of 574 nm; an absorption maximum (in CCCCCC) of 577 nm; an absorption maximum (in CCOC(C)=O) of 575 nm; an absorption maximum (in CO) of 574 nm; an absorption maximum (in ClCCl) of 579 nm.
`CCOC(=O)c1cc(C(=O)OCC)c2cc(N(CC)CC)ccc2n1` showed an absorption maximum (in CCO) of 453 nm.
The compound `Cc1cc2ccsc2c2[nH]c3ccccc3c12` came in with an absorption maximum (in ClCCl) of 310 nm.
On the same count and under the same terms, the same measure for `CCOC(=O)c1c(-c2cc3ccc(OC)cc3oc2=O)nn(-c2cccc(C)c2)c1C(=O)OCC`: 337 nm.
Turning to `COCCOc1cc(C=O)c(OCCOC)cc1C=O`, the absorption maximum is, setting by setting: (in CC(C)(C)O) 393 nm; (in CC(C)CO) 391 nm; (in CC(C)O) 390 nm; (in CCCCO) 363 nm; (in CCCO) 363 nm; (in CCO) 362 nm. Moreover, the absorption maximum is, setting by setting: (in CN(C)C=O) 392 nm; (in CNC=O) 351 nm; (in CO) 353 nm; (in NC=O) 354 nm; (in O) 391 nm.
For the setting “in CCO”, `O=C(c1cc(F)c(O)cc1F)c1cc(F)c(O)cc1F` yielded an absorption maximum of 306 nm.
`COc1ccc(-c2cc(-c3ccccc3)c3n2[B-](F)(F)[N+]2=C4C=NC=CN4[B-](F)(F)[N+]2=C3)cc1`: the absorption maximum (in ClCCl) is listed as 534 nm.
Under “in ClC(Cl)Cl”, `CC1=[N+]2C(=C(c3c4ccccc4cc4ccccc34)c3ccc(/C=C/C(C)(C)C)n3[B-]2(F)F)C=C1` displayed an absorption maximum of 549 nm.
`CN1c2cc3nc4cc(Br)c(Br)cc4nc3cc2N(C)C1(C)C` returned an absorption maximum (in CCO) of 473 nm.
Turning to `COc1ccc(-c2c3cc4ccccc4cc3c(-c3ccc(OC)cc3)c3cc4ccccc4cc23)cc1`, for the setting “in ClCCl”, the absorption maximum was 602 nm.
Consider `C[n+]1ccc(-c2ccc([O-])cc2)cc1`, for which the absorption maximum was determined as 472 nm (in CC#N); 479 nm (in CC(C)=O); 457 nm (in CC(C)O); 460 nm (in CCC(C)O); 441 nm (in CCCO); 418 nm (in CO). Moreover, the absorption maximum is 473 nm (in CS(C)=O) and 394 nm (in O).
With `Cc1cc(C)c(C2=C3C=CC(c4csc5ccccc45)=[N+]3[B-](F)(F)n3c2ccc3-c2csc3ccccc23)c(C)c1`, the absorption maximum (in ClC(Cl)Cl) is listed as 581 nm.
For `CN(C)c1ccc(C2=Nc3sc4c(F)c(F)c(F)c(F)c4[n+]3[B-](F)(F)O2)cc1`, the absorption maximum came to 434 nm (in C1CCOC1), 431 nm (in CC#N), 431 nm (in Cc1ccccc1) and 433 nm (in ClCCl).
Under “in ClCCl”, `COc1ccc(C#Cc2ccc3nc4ccc(C#Cc5ccc(OC)cc5)cn4c(=O)c3c2)cc1` had an absorption maximum of 385 nm.
`CCN(CC)c1ccc(/C=N/CC/N=C/c2ccc(N(CC)CC)cc2O)c(O)c1`: the absorption maximum by setting is: (in CC#N) 339 nm; (in CN(C)C=O) 353 nm; (in ClCCl) 344 nm.
`CCOC(=O)/C(C#N)=C/c1cc2c3ccccc3n(C)c2cc1OC`: the absorption maximum is, setting by setting: (in C1CCOC1) 407 nm; (in CC#N) 410 nm; (in CCOC(C)=O) 406 nm; (in CN(C)C=O) 417 nm; (in CO) 415 nm; (in CS(C)=O) 419 nm. In addition, the absorption maximum is, setting by setting: (in Cc1ccccc1) 407 nm; (in ClC(Cl)Cl) 415 nm; (in ClCCl) 412 nm.
`Cc1cn(C(F)(F)F)c(=O)[nH]c1=O`: the absorption maximum (in CC#N) came out at 255 nm.
For `CCCCCCCCCCOc1cc(OCCCCCCCCCC)cc(C2=C3C(/C=C/c4ccc(N(C)C)cc4)=C(C#Cc4ccc(C(C)(C)C)cc4)C(/C=C/c4ccc(N(C)C)cc4)=[N+]3[B-](F)(F)n3c(/C=C/c4ccc(N(C)C)cc4)c(C#Cc4ccc(C(C)(C)C)cc4)c(/C=C/c4ccc(N(C)C)cc4)c32)c1`, for the setting “in ClC(Cl)Cl”, the absorption maximum came to 797 nm.
